Data: patent US20120238557A1, “AMINOTHIAZINE OR AMINOOXAZINE DERIVATIVE HAVING AMINO LINKER” (SHIONOGI & CO., LTD., priority 2009, published 2012)
pIC50: −log10 of the molar value.

Tests used:
[1] = molecular target: T1, Recombinant human BACE1 (Homo sapiens, UniProt P56817); experiment: Assay of BACE1 inhibiting activity; type: biochemical; details: 50% inhibitory concentration against enzymatic activity of recombinant human BACE1; Table 2
T1 construct: purchased R&D Systems

[2] = system: Neuroblastoma SH-SY5Y cells (SH/APPwt) with human wild-type β-APP excessively expressed; experiment: Measurement of β-amyloid (Aβ) production inhibitory effect in cell; type: cell-based; details: amount needed to inhibit Aβ production by 50%, SH/APPwt cells, 24 hours, Table 3, read-out: IC50
Procedure: Neuroblastoma SH-SY5Y cells (SH/APPwt) with human wild-type β-APP excessively expressed therein were prepared at 8×10^5 cells/mL, and 150 μl portions thereof were inoculated into each well of a 96-well culture plate (Falcon). The cells were cultured for 2 hours at 37° C. in a 5% gaseous carbon dioxide incubator. Then, a solution which had been preliminarily prepared by adding and suspending the test compound (DMSO (dimethyl sulfoxide) solution) so as to be 2 μl/50 μl medium was added to the cell sap. Namely, the final DMSO concentration was 1%, and the amount of the cell culture was 200 μl. After the incubation was performed for 24 hours from the addition of the test compound, 100 μl of the culture supernatant was collected from each fraction. The amount of the Aβ in each fraction was measured.
The Aβ amount was measured as follows. 10 μl of a homogeneous time resolved fluorescence (HTRF) measurement reagent (Amyloid β 1-40 peptide; IBA Molecular Holding, S. A.) and 10 μl of the culture supernatant were put into a 384-well half area microplate (black microplate, Costar) and mixed with each other, and then left standing overnight at 4° C. while the light was shielded. Then, the fluorescence intensity (excitation wavelength: 337 nm, measurement wavelength: 620 nm and 665 nm) was measured with a Wallac 1420 multilabel counter (Perkin Elmer life sciences).

[3] = Brain distribution studies; type: in vivo; details: brain/plasma; rat, intravenous 0.5 mg/mL/kg, 30 minutes later; read-out: brain Kp value (area ratio brain/plasma)
Procedure: Intravenous administration is carried out to a rat by 0.5 mg/mL/kg dosage of the compound. […] Then, the brain was extracted and 20-25% of homogenate thereof was prepared with distilled water. On the other hand, the obtained blood is used as plasma after centrifuging. Then, to the brain sample was added the control plasma at 1:1. To the plasma samples was added the control brains at 1:1. Each sample was measured using LC/MS/MS. The obtained area ratio (a brain/plasma) was used for the brain Kp value.

T1 sequence (P56817 46-501): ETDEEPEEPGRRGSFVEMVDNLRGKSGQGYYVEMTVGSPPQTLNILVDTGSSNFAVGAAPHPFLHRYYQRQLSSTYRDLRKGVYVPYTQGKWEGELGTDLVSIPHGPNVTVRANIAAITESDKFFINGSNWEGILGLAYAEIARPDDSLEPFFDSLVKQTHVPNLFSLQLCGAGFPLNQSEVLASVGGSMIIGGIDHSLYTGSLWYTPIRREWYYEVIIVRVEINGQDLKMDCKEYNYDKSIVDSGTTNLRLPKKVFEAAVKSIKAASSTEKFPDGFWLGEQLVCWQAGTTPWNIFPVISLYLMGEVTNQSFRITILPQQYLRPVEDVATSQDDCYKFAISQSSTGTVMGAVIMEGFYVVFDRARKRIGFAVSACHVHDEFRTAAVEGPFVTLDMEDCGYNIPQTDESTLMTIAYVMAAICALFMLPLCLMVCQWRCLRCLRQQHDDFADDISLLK

C[C@@]1(c2cc(Nc3ncccc3C#N)ccc2F)CCSC(N)=N1 [Compound I-11]
pIC50 [1]: 7.00
pIC50 [2]: 8.05
Kp at 0.5 h [3]: 2.2
